Measurements reported in US10588280B2, “Aided delivery of plant treatment agents” (Monsanto Technology LLC, priority 2014, dated 2020).

How the values were obtained:
Assay type in all cases: in vivo
[1] = system: haploid maize seedlings (shoot meristem); assay: Example 1: single unsubmerged centrifugation after colchicine soak, chromosome doubling success; conditions: 1250 ppm colchicine 10 min soak, unsubmerged spin 335 g 3 min
Description: Corn seeds of four different maize F1 hybrid-derived haploid induction populations were used in this experiment; two of the populations, Male 1 and Male 2, were derived from two different male inbred lines and the remaining two populations, Female 1 and Female 2, were derived from two different female inbred lines. Seeds of each germplasm were germinated in soil and the subsequent seedlings tended in a greenhouse under standard maize growing conditions until the seedlings reached the V1 to V2 growth stages.
Next, several randomly-selected seedlings of each germplasm were then removed from the soil, washed to remove residual soil and then subjected to a contacting step which included soaking the seedlings for 10 minutes in a liquid doubling agent comprising 1250 ppm colchicine.
After the contacting step, seedlings were bundled in a PCS with wooden rods, similar to that described in FIG. 9. The seedlings and rods were wrapped tightly together with several layers of aluminum foil. Care was taken to wrap the seedlings tightly, but not so tight as to damage the tissues of the seedling. The folds and layers of the wrap were arranged such that any liquid agent still clinging to the surface of the plant would not be trapped inside the wrap during centrifugation.
Once arranged in the centrifuge, seedlings were subjected to an unsubmerged centrifugation at 335 g for 3 min.
After centrifugation, the seedlings were removed from the centrifuge container, rinsed with water to remove any remaining plant treatment agent, and then transplanted into 10-inch pots in a growth room where they were tended under standard maize growing conditions until they grew to maturity and flowered.
Self-pollinations were attempted with each plant that survived the treatment to produce pollen and during the ensuing growth the pollination success, fertilization success and final doubling efficiency were determined within each sample.
Control samples of several randomly-selected seedlings from each germplasm received no exposure to the plant treatment agent, but were otherwise handled identically as their treated counterparts.

[2] = system: haploid corn seedlings (SAM); assay: Example 2: single submerged centrifugation in colchicine, survival and doubling success; conditions: for DE / Fert. Success / Initial Survival / Poll. Success: single submerged spin 50 g 10 min
Description: Seeds of 5 different F1 hybrid-derived haploid commercial corn lines were randomly-selected and germinated in a greenhouse. The resulting seedlings were removed from soil or growth media at the V1-V2 growth stage and the soil or growth media rinsed from the plants with water. One sample of several random seedlings within each haploid line was placed in a centrifuge sample container without regard to how the shoot-root axis of the plants would be orientated with respect to the force of acceleration generated during the planned centrifugation. Next, a plant treatment solution comprising 1000 ppm colchicine was poured into the container such that the solution submerged each plants SAM, and then the sample centrifuged at 50 g for 10 min with the SAMs submerged in the plant treatment agent.
Following centrifugation, the plants were removed, rinsed with water to remove any remaining colchicine solution, and then recovered and tended in a light, humidity, and temperature-controlled greenhouse for several days before being transplanted to a nursery greenhouse.
The control sample received no centrifugation or colchicine exposure, but was otherwise handled identically as the treatment sample. During the subsequent growth of the plants, the initial survival, pollination success, fertilization success, and doubling efficiency (DE) were determined within each sample.

[3] = system: haploid seedlings derived from corn inbred 91DUQ1 or 83IDI1 (SAM); assay: Example 8: serial centrifugation with colchicine, unsubmerged spin at 340 g to 2000 g; conditions: 1250 ppm colchicine, submerged 50 g 3 min
Description: F1 hybrid-derived haploid seedlings derived from either female corn inbred line 91DUQ1 or male corn inbred line 83IDI1 were germinated in soil in a greenhouse in standard maize growing conditions and grown to the V1-V2 growth stage (1 week after planting). Seedlings were then removed from the soil, rinsed to remove residual soil, and partitioned into 5 samples comprising several dozen seedlings each.
This bundled PCS sample was placed into a centrifuge container, roots first. Each plant of the other four samples were individually wrapped to a PCS comprising a rod with a paraffin wrap and placed into a separate centrifuge container, one plant-PCS assembly per container, similar to that shown in FIG. 7.
Once attached to their respective PCSs and placed into their respective centrifuge containers, a solution comprising 1250 ppm colchicine was added to each container until each plant was submerged at least up until the SAM of every plant was submerged. All samples were then centrifuged with the SAMs submerged in treatment solution for 3 min at 50 g.
Following the first centrifugation, the treatment solution was drained from each centrifugation container, and then each sample was subjected to an unsubmerged spin for 3 minutes at one of six different rates, ranging from 340 g to 2000 g, as shown in Table 9.
Following the second centrifugation, the plants were removed from the centrifugation container and rinsed with water to remove any remaining colchicine solution, and then transplanted into 10-inch pots and tended in a growth room under standard maize growing conditions until they grew to maturity and flowered.
Self-pollinations were attempted with each plant that survived the treatment to produce pollen and an ear, and pollination success as determined within each sample.

[4] = Ave: of five lines, 1000 ppm colchicine
[5] = centrifuged samples, 1000 ppm colchicine, submerged 50 g 10 min, vs untreated controls
[6] = line F1004, 1000 ppm colchicine
[7] = line F1045, 1000 ppm colchicine
[8] = line F1095, 1000 ppm colchicine
[9] = line F1118, 1000 ppm colchicine
[10] = line F1900, 1000 ppm colchicine
[11] = bundled PCS, unsubmerged 340 g 3 min
[12] = individually-wrapped PCS, unsubmerged 340 g 3 min
[13] = individually-wrapped PCS, unsubmerged 500 g 3 min
[14] = individually-wrapped PCS, unsubmerged 750 g 3 min
[15] = individually-wrapped PCS, unsubmerged 1000 g 3 min
[16] = individually-wrapped PCS, unsubmerged 2000 g 3 min

## COc1cc2c(c(OC)c1OC)-c1ccc(OC)c(=O)cc1[C@@H](NC(C)=O)CC2 [colchicine]
[1]; Female1
  DE (doubling efficiency): 42%
[1]; Female1, 19 plants treated
  Fertilization Successes: 8
  Pollination Successes: 10
[1]; Female2
  DE (doubling efficiency): 50%
[1]; Female2, 8 plants treated
  Fertilization Successes: 4
  Pollination Successes: 6
[1]; Male1
  DE (doubling efficiency): 71%
[1]; Male1, 14 plants treated
  Fertilization Successes: 10
  Pollination Successes: 13
[1]; Male2
  DE (doubling efficiency): 67%
[1]; Male2, 15 plants treated
  Fertilization Successes: 10
  Pollination Successes: 12
[2]; [4]
  DE: 30%
  Fert. Success: 84%
  Initial Survival: 77%
  Poll. Success: 47%
[2]; [5]
  drop in initial survival as compared to controls: 15%
  improvement of overall average DE as compared to controls: 25%
[2]; [6]
  DE: 50%
  Fert. Success: 100%
  Initial Survival: 100%
  Poll. Success: 50%
[2]; [7]
  DE: 25%
  Fert. Success: 100%
  Initial Survival: 58%
  Poll. Success: 43%
[2]; [8]
  DE: 47%
  Fert. Success: 78%
  Initial Survival: 87%
  Poll. Success: 69%
[2]; [9]
  DE: 10%
  Fert. Success: 100%
  Initial Survival: 40%
  Poll. Success: 25%
[2]; [10]
  DE: 10%
  Fert. Success: 40%
  Initial Survival: 100%
  Poll. Success: 50%
[2]; minimum over all five inbred samples receiving the experimental treatment
  individuals that produced pollen and silks: at least 25%
[3]; [11]
  DE: 68.9%
  Fertilization Success: 85.0%
  Pollination success: 90.0%
  Survival Rate: 90.0%
[3]; [12]
  DE: 89.3%
  Fertilization Success: 96.2%
  Pollination success: 100.0%
  Survival Rate: 92.9%
[3]; [13]
  DE: 96.4%
  Fertilization Success: 100.0%
  Pollination success: 100.0%
  Survival Rate: 96.4%
[3]; [14]
  DE: 83.3%
  Fertilization Success: 95.2%
  Pollination success: 100.0%
  Survival Rate: 87.5%
[3]; [15]
  DE: 85.7%
  Fertilization Success: 100.0%
  Pollination success: 92.3%
  Survival Rate: 92.9%
[3]; [16]
  DE: 63.6%
  Fertilization Success: 87.5%
  Pollination success: 100.0%
  Survival Rate: 72.7%
